In patent US20220088195A1, “Prevention or mitigation of T-cell bispecific antibody-related adverse effects” (Hoffmann-La Roche Inc., priority 2020, published 2022):

Experiments:
Type in all cases: cell-based, human
CD4+ and CD8+ T cells = assay: T cell activation (CD25, CD69 by FACS) in SKM-1 killing assay with HLA-A2 WT-1-TCB, dasatinib added after 24 hours; conditions: 48 hours; 100 nM dasatinib added at 24h; 10 nM HLA-A2 WT-1-TCB
Protocol: FIG. 3. In vitro killing assay set-up and timelines. PBMCs were co-cultured with SKM-1 target cells (E:T=10:1) and 10 nM HLA-A2 WT-1-TCB. Dasatinib (100 nM) was added after 24 hours of activation. PBMCs were labelled with CellTrace™ Violet (CTV) to allow T cell proliferation assessment.
FIG. 4. T cell activation. CD25 and CD69 expression on CD4+ and CD8+ T cells was measured by FACS after 24h and 48h of activation in the presence and absence of dasatinib, according to the assay of FIG. 3. (A) CD25 expression on CD8+ T cells, (B) CD25 expression on CD4+ T-cells, (C) CD69 expression on CD8+ T cells, (D) CD69 expression on CD4+ T cells.
To evaluate if dasatinib could act as a rapid and potent inhibitor of activated T cells, we first stimulated PBMCs on SKM-1 tumor cells with HLA-A2 WT-1-TCB for 24 hours. We then supplemented these activated effector cells with 100 nM dasatinib (FIG. 3).
Upon addition of 100 nM dasatinib at 24h, expression of early activation marker CD69 and late activation marker CD25 on CD4+ and CD8+ T cells at 48 hours was found at an intermediate level between expression measured at 24 hours and expression measured at 48 hours in samples with no dasatinib treatment (FIG. 4).

[1] = system: IFN-γ, IL-2 and TNF-α release; assay: Cytokine release after second stimulation with HLA-A2 WT-1-TCB in the SKM-1 assay (Luminex); conditions: 100 nM dasatinib, versus positive control ON/ON
Protocol: FIG. 12. Cytokine release after the second stimulation with HLA-A2 WT-1-TCB with and without dasatinib. Supernatants from the killing assay of FIG. 8 were collected 24 hours after the second stimulation and IFN-γ (A), TNF-α (B) and IL-2 (C) were measured with a multiplex cytokine kit (Luminex technology). n=3 donors.
To assess whether dasatinib can efficiently prevent TCB-mediated target cell killing by activated T cells, we set up an in vitro killing assay with two stimulation steps, mimicking an ON/OFF switch. During the first stimulation, PBMCs were activated on carboxyfluorescein succinimidyl ester (CFSE)-labelled SKM-1 tumors cells with HLA-A2 WT-1-TCB in the absence of dasatinib (ON). During the second stimulation, activated PBMCs together with dead CFSE labelled SKM-1 tumors cells were washed and re-stimulated by HLA-A2 WT-1-TCB on fresh CTV labelled SKM-1 tumor cells in the presence of 100 nM dasatinib (OFF). The use of CFSE and CTV labelled SKM-1 tumors allowed to differentiate tumor cells used for first and second stimulation by flow cytometry (FIG. 8). […] Consistently, T cells were activated and functional before the addition of dasatinib in the system. […]

Z138 target cells = assay: Two-stimulation killing assay, PBMCs + Z138 target cells + CD20-TCB; conditions: 100 nM dasatinib upon re-stimulation; 1 nM CD20-TCB
Protocol: FIG. 23. In vitro killing assay set-up and timelines. PBMCs were co-cultured with carboxyfluorescein succinimidyl ester (CFSE) labelled Z138 target cells (E:T=5:1) and […] 1 nM CD20-TCB for 20h. Activated PBMCs were washed and restimulated on fresh, CTV labelled Z138 target cells (E:T=5:1) and 1 nM CD20-TCB in the presence or absence of 100 nM dasatinib.
(§1) FIG. 24. Dead Z138 cells upon first and second stimulation with 1 nM CD20-TCB in the presence and absence of 100 nM dasatinib in the assay of FIG. 23, as measured by flow cytometry. Cells were collected 20h after the first and 24 h after the second stimulation and stained with live dead NIR dye. Mean of technical replicates+/−SD. N=3 donors.
as §1, with “25.” for “24.”, “upon” for “upon first and”, “collected” for “collected 20h after the first and”, “after” for “after the”, “Three donors D1-D3 (A-C).” for “N=3 donors.”
A similar re-stimulation experiment was performed with a different TCB, targeting CD20 (CD20-TCB (SEQ ID NOs 28-35, 48-59), 1 nM), and the killing of Z138 target cells measured after the first and second stimulation (FIG. 23).

Cc1nc(Nc2ncc(C(=O)Nc3c(C)cccc3Cl)s2)cc(N2CCN(CCO)CC2)n1 [dasatinib, N-(2-chloro-6-methylphenyl)-2-[[6-[4-(2-hydroxyethyl)-1-piperazinyl]-2-methyl-4-pyrimidinyl]amino]-5-thiazole carboxamide monohydrate]
CD25 and CD69 expression on CD4+ and CD8+ T cells (CD4+ and CD8+ T cells): rapidly blocked the expression of phenotypic activation markers | IFN-γ, IL-2 and TNF-α release upon re-stimulation [1]: fully inhibited | killing of CTV labelled Z138 target cells (ON/OFF versus ON/ON) (Z138 target cells): effectively prevented the killing
